The values that follow come from patent US11311567B2, “Cytochrome P450 enzyme complexes and methods of treatment using the same” (Innovation Hammer LLC, priority 2004, dated 2022).

For series [1] the following is noted: basis for selecting preferred oxidants; cited from earlier work.
A further series deals with human CPR (hCPR). The series can be described thus: NADPH-dependent reduction of cytochrome C by CPR in microsomes after treatment with substrates. The class given is biochemical. The following applies: microsomes quantified against CPR and Cc; Cc oxidase activity inhibited by potassium cyanide. The source says: The following example illustrates an application of human P450 compositions according to the present invention. Procedures followed previously described methods, e.g., U.S. Pat. No. 6,020,288; M. Markwell, et al., Methods of Enzymology 72:296-303 (1981); C. A. Mihaliak, et al., Methods in plant biochemistry 19:261-279 (1993); R. Donaldson, et al., Arch. Biochem. Biophys. 152:199-215 (1972); and M. Persans, et al., Plant Physiol. 109:1483-1490 (1995)).
Methods. CPR substrates have been assayed on various tissues (e.g., U.S. Pat. No. 6,020,288); therefore, response to human CPR (hCPR) was examined under controlled conditions on live index organisms. The direct effects of substrates on hCPR were measured by preparation of microsomes for quantification against CPR and Cc. Controls included equal concentrations of each individual treatment or substrate in surfactant and water. Untreated controls were maintained under identical conditions of culture. Oxidase activity of Cc was inhibited by potassium cyanide. The reaction was initiated by addition of Cc wherein NADPH-dependent reduction of Cc was monitored for increases in absorbance.

Turning to `Cc1cc2nc3c(=O)[nH]c(=O)nc-3n(C[C@H](O)[C@H](O)[C@H](O)COP(=O)(O)O)c2cc1C` [FMN, flavin mononucleotide], the “one-electron reduction potential (E0)” value in series [1] is listed as −313 mV. The “induction relative to components tested” value in the series on human CPR (hCPR) is recorded as “over 4.5 times”.

As for nitrobenzoate, the “one-electron reduction potential (E0)” value in series [1] is −396 mV. For `O=C(O)CO` [glycolate], the “one-electron reduction potential (E0)” value in series [1] was −290 mV.
